This note sets out measurements from patent publication US20150086557A1, “NOVEL INTEGRIN alpha9 beta1 LIGAND AND USES THEREOF” (OSAKA UNIVERSITY, priority 2012, published 2015).

Test [1] deals with hematopoietic stem cells. Briefly: Proliferation of hematopoietic stem cells on coated plates. Type of test: cell-based, mouse. How it is done:
(§1) Bone marrow cells were flushed out from the femurs and tibias of three mice of 6 to 7 weeks of age (C57BL/6J) and dissociated with a 22G needle. The cells were reacted with a biotin-labeled anti-lineage antibody for 30 minutes and subsequently with an anti-blotin antibody-conjugated magnetic beads, and lineage-positive cells were removed by automated magnetic cell sorter autoMACS (Miltenyi Biotec). After staining with PE-CD3, PE-Mac1, PE-Gr1, PE-Ter119, PE-B220, FTTC-Sca1 and APC-c-Kit, a lineage(−) Sca1(+) c-Kit (high) cell fraction was sorted out using FACSAria and used for the experiments described below.
(§2) The above-prepared cells were plated on a 48-well plate coated with a recombinant polydom protein or fibronectin. The same type of plate without coating was used as a control. The medium used was RPMI containing 10% fetal calf serum, thrombopoietin (30 ng/ml) and flt3 ligand (100 ng/ml). For the examination of cell proliferation, the cells were plated in duplicate wells for each coating at 1000 cells/well and started to be cultured, and the cell number was counted at the start of culture, and on day 2 and day 3. The remaining cells were divided into three aliquots, plated in wells for each coating, and subjected to FACS analysis on day 3 after the start of culture. For the FACS analysis, staining with an antibody cocktail containing PE-CD3, PE-Mac1, PE-Gr1, PE-Ter119, PE-B220, FITC-Sca1 and APC-c-Kit was performed and FACSCont was used.
The above-prepared cells were divided into three groups and plated on 48-well plates at 5000 cells/well. The medium used was RPMI containing 10% fetal calf serum, thrombopoietin (30 ng/ml) and flt3 ligand (100 ng/ml). For an EDDMMEVPY peptide treatment group, 2 μl of the peptide was added to each well at the final concentration of 50 μM, and for the other two groups, 2 μl of PBS was added to each well. Then, the culture was performed at […] for 2 hours. Subsequently, the cells were transferred to 48-well plates coated with a recombinant polydom protein or fibronectin. The cells cultured in the presence of the peptide were transferred to the recombinant polydom protein-coated plate, and the cells in one of the other two groups were transferred to the recombinant polydom protein-coated plate, and the cells in the remaining group were transferred to the fibronectin-coated plate. The culture was continued for 3 days and the cell numbers were counted on day 2, day 3 and […].

In test [2] the test system is hematopoietic stem cells. Briefly: FACS analysis of differentiation of hematopoietic stem cells on coated wells. It is filed as cell-based, mouse. The settings on record: day 3 of culture on coated well, FIG. 19. How it is done: as §1, §2

Regarding “polydom: recombinant mouse SVEP1 (SEQ ID NO: 2), ECM protein, ligand for integrin α9β1”, the “proliferation of hematopoietic stem cells on coated wells” value in the test on hematopoietic stem cells [1] (1000 cells/well, counted to day 3, versus uncoated control, FIG. 18) was “remarkably inhibited from proliferating”. Also, the “proliferation of hematopoietic stem cells on coated plate after PBS pretreatment” value with hematopoietic stem cells [1] (5000 cells/well, counted day 2 to day 4, FIG. 20) was “remarkably inhibited from proliferating”. In the test on hematopoietic stem cells [2], the “expression of Sca1 on hematopoietic stem cells” value is recorded as “maintained the expression of Sca1” and the “expression of c-Kit on hematopoietic stem cells” value is reported as “reduced expression of c-Kit”.
